Molecules are shown by their SMILES.

Sequence of aldosterone synthase (CYP11B2) (A0A2K5UPL9 1-503): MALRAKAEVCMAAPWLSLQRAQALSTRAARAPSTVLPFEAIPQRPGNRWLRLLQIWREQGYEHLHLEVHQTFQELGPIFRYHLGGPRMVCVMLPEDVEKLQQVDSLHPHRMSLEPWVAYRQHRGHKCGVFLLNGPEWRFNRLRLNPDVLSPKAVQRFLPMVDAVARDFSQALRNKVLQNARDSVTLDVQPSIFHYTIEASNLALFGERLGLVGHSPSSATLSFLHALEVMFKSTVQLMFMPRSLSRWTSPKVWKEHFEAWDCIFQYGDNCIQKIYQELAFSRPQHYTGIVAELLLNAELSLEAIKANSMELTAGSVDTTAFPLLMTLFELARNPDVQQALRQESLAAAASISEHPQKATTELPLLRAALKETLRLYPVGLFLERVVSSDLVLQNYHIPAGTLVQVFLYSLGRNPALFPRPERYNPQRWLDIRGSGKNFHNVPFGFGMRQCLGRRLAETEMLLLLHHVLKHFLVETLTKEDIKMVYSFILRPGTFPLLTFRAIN

The assay has as its target aldosterone synthase (CYP11B2) (Macaca fascicularis, UniProt A0A2K5UPL9). The assay can be described thus: aldosterone synthase inhibition assay. The note with it: cynomolgus adrenal gland mitochondria, 2 μM corticosterone, aldosterone quantified by mass spectrometry. It counts as biochemical, cynomolgus monkey. The method in brief: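 Cynomolgus adrenal mitochondria ([…]) used as CYP11B2 source with 2 μM corticosterone in 100 mM potassium phosphate pH 7.4, 1% DMSO; reaction started with 1 mM NADPH, run 60-90 min at 37° C. Aldosterone measured by mass spectrometry; IC50 from 4-parameter logistic fit, no-NADPH blank as 0%.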
In turn, `CCC(=O)NC1COCc2c(-c3ccc4ncn(C)c4c3)cncc21` (single isomer, unassigned) [Compound 57, N-[8-(3-Methyl-3H-benzoimidazol-5-yl)-3,4-dihydro-1H-pyrano[4,3-c]pyridin-4-yl]-propionamide] gave an IC50 of 219 nM.
For `Cc1noc2ccc(-c3cncc4c3COC3(CC3)C4O)cc12` (single isomer, unassigned) [Compound 114, 8-(3-methyl-1,2-benzoxazol-5-yl)spiro[1,4-dihydropyrano[4,3-c]pyridine-3,1′-cyclopropane]-4-ol], the midpoint of inhibition, the IC50, lay at 18.8 nM.
The molecule `N#CC1CC=C(c2cncc3c2COCC3O)CC1` (single isomer, unassigned) [Compound 192, 4-(4-Hydroxy-3,4-dihydro-1H-pyrano[4,3-c]pyridin-8-yl)-cyclohex-3-enecarbonitrile] showed an IC50 of 14 nM.
For `CCC(=O)NC1COCc2c(-c3ccc4cnn(C)c4c3)cncc21` (single isomer, unassigned) [Compound 155, N-[8-(1-Methyl-1H-indazol-6-yl)-3,4-dihydro-1H-pyrano[4,3-c]pyridin-4-yl]-propionamide], the midpoint of inhibition, the IC50, lay at 3800 nM.
With `Cn1ncc2ccc(-c3cncc4c3COCC4NS(C)(=O)=O)cc21` (single isomer, unassigned) [Compound 81, N-[8-(1-Methyl-1H-indazol-6-yl)-3,4-dihydro-1H-pyrano[4,3-c]pyridin-4-yl]-methanesulfonamide], half-maximal inhibition (IC50) required 28.5 nM.
The figure for `Cn1ncc2c1CC(c1cncc3c1COCC3O)CC2` (single isomer, unassigned) [Compound 191, 8-(1-Methyl-4,5,6,7-tetrahydro-1H-indazol-6-yl)-3,4-dihydro-1H-pyrano[4,3-c]pyridin-4-ol] is 48 nM; for `Cn1ncc2ccc(-c3cncc4c3C(O)COC4)cc21` (single isomer, unassigned) [Compound 166, 5-(1-Methyl-1H-indazol-6-yl)-3,4-dihydro-1H-pyrano[3,4-c]pyridin-4-ol] it is 36.5 nM; for `Cn1ncc2c(F)cc(-c3cncc4c3COC3(CC3)C4O)cc21` (single isomer, unassigned) [Compound 92, 8-(4-fluoro-1-methyl-indazol-6-yl)spiro[1,4-dihydropyrano[4,3-c]pyridine-3,1′-cyclopropane]-4-ol] it is 11.5 nM.
As for `N#CC1CC=C(c2cncc3c2COCC3O)CC1` (single isomer, unassigned) [Compound 186, 4-(4-Hydroxy-3,4-dihydro-1H-pyrano[4,3-c]pyridin-8-yl)-cyclohex-3-enecarbonitrile], the IC50 came out at 67 nM.
The figure for `CCS(=O)(=O)NC1COCc2c(-c3ccc4oc(=O)ccc4c3)cncc21` (single isomer, unassigned) [Compound 158, Ethanesulfonic acid [8-(2-oxo-2H-chromen-6-yl)-3,4-dihydro-1H-pyrano[4,3-c]pyridin-4-yl]-amide] is 13 nM; for `Cn1nc(F)c2ccc(-c3cncc4c3COCC4(C)O)cc21` (single isomer, unassigned) [Compound 171, 8-(3-Fluoro-1-methyl-1H-indazol-6-yl)-4-methyl-3,4-dihydro-1H-pyrano[4,3-c]pyridin-4-ol] it is 19.1 nM; for `Cn1nnc2ccc(-c3cncc4c3COC3(CC3)C4O)cc21` (single isomer, unassigned) [Compound 197, 8-(3-methylbenzotriazol-5-yl)spiro[1,4-dihydropyrano[4,3-c]pyridine-3,1′-cyclopropane]-4-ol] it is 18 nM.
Take `OC1COCc2c(-c3ccc4[nH]ncc4c3)cncc21` (single isomer, unassigned) [Compound 47, 8-(1H-Indazol-5-yl)-3,4-dihydro-1H-pyrano[4,3-c]pyridin-4-ol]: the IC50 stood at 50 nM.
For the molecule `Cn1nc(F)c2ccc(-c3cncc4c3COCC4(C)O)cc21` (single isomer, unassigned) [Compound 172, 8-(3-Fluoro-1-methyl-1H-indazol-6-yl)-4-methyl-3,4-dihydro-1H-pyrano[4,3-c]pyridin-4-ol], 10.2 nM corresponded to half-maximal inhibition (IC50).
The figure for `OC1COCc2c(-c3ccc4cnccc4c3)cncc21` (single isomer, unassigned) [Compound 30, 8-Isoquinolin-6-yl-3,4-dihydro-1H-pyrano[4,3-c]pyridin-4-ol] is 54 nM.
With `CCS(=O)(=O)NC1COCc2c(-c3ccc4c(c3)C(O)CCO4)cncc21` (single isomer, unassigned) [Compound 133, Ethanesulfonic acid [8-(4-hydroxy-chroman-6-yl)-3,4-dihydro-1H-pyrano[4,3-c]pyridin-4-yl]-amide], half-maximal inhibition (IC50) was put at 1470 nM.
The molecule `NC(=O)N1CCCc2cc(-c3cncc4c3COCC4O)cnc21` (single isomer, unassigned) [Compound 163, 6-(4-Hydroxy-3,4-dihydro-1H-pyrano[4,3-c]pyridin-8-yl)-3,4-dihydro-2H-[1,8]naphthyridine-1-carboxylic acid amide] had an IC50 of 44.3 nM.
The figure for `OC1COCc2c(-c3ccc4c(c3)COCCC4(F)F)cncc21` (single isomer, unassigned) [Compound 148, 8-(5,5-Difluoro-1,3,4,5-tetrahydro-benzo[c]oxepin-8-yl)-3,4-dihydro-1H-pyrano[4,3-c]pyridin-4-ol] is 83.7 nM.
For `Cn1cc(-c2cncc3c2COCC3O)cn1` (single isomer, unassigned) [Compound 32, 8-(1-Methyl-1H-pyrazol-4-yl)-3,4-dihydro-1H-pyrano[4,3-c]pyridin-4-ol], the IC50 amounted to 2700 nM.
Regarding `CC1(C)COc2ccc(-c3cncc4c3COCC4O)cc21` (single isomer, unassigned) [Compound 182, 8-(3,3-Dimethyl-2,3-dihydro-benzofuran-5-yl)-3,4-dihydro-1H-pyrano[4,3-c]pyridin-4-ol], inhibition was half-maximal at 496 nM (IC50).
In the case of `CC(=O)NC1COCc2c(-c3ccc4c(c3)CCC4=O)cncc21` (single isomer, unassigned) [Compound 152, N-[8-(1-Oxo-indan-5-yl)-3,4-dihydro-1H-pyrano[4,3-c]pyridin-4-yl]-acetamide], the IC50 is 50.2 nM.
`CC(=O)N1Cc2ccc(-c3cncc4c3COCC4O)cc2C1` (single isomer, unassigned) [Compound 109, 1-[5-(4-Hydroxy-3,4-dihydro-1H-pyrano[4,3-c]pyridin-8-yl)-1,3-dihydro-isoindol-2-yl]-ethanone] yielded an IC50 of 544 nM.
`Cn1ncc2cc(-c3cncc4c3COCC4O)ccc21` (single isomer, unassigned) [Compound 36, 8-(1-Methyl-1H-indazol-5-yl)-3,4-dihydro-1H-pyrano[4,3-c]pyridin-4-ol] yielded an IC50 of 17.5 nM.
`CCC(=O)NC1COCc2c(-c3ccc4c(c3)CC(=O)N4)cncc21` (single isomer, unassigned) [Compound 59, N-[8-(2-Oxo-2,3-dihydro-1H-indol-5-yl)-3,4-dihydro-1H-pyrano[4,3-c]pyridin-4-yl]-propionamide] registered an IC50 of 179 nM.
`CCS(=O)(=O)NC1COCc2c(-c3ccc4c(F)nn(C)c4c3)cncc21` (single isomer, unassigned) [Compound 68, Ethanesulfonic acid [8-(3-fluoro-1-methyl-1H-indazol-6-yl)-3,4-dihydro-1H-pyrano[4,3-c]pyridin-4-yl]-amide] had an IC50 of 15.9 nM.
The molecule `OC1COCc2c(-c3ccc4c(c3)COCC4(F)F)cncc21` (single isomer, unassigned) [Compound 200, 8-(4,4-Difluoro-isochroman-7-yl)-3,4-dihydro-1H-pyrano[4,3-c]pyridin-4-ol] showed an IC50 of 279 nM.
Consider `Cc1n[nH]c2cc(-c3cncc4c3COCC4O)ccc12` (single isomer, unassigned) [Compound 11, 8-(3-Methyl-1H-indazol-6-yl)-3,4-dihydro-1H-pyrano[4,3-c]pyridin-4-ol], for which the IC50 is 690 nM.
For `OC1COCc2cncc(-c3ccc4cnccc4c3)c21` (single isomer, unassigned) [Compound 168, 5-Isoquinolin-6-yl-3,4-dihydro-1H-pyrano[3,4-c]pyridin-4-ol], the IC50 is 40.5 nM.
The figure for `OC1COCc2c(-c3ccc4c(c3)C(F)(F)CCO4)cncc21` (single isomer, unassigned) [Compound 141, 8-(4,4-Difluoro-chroman-6-yl)-3,4-dihydro-1H-pyrano[4,3-c]pyridin-4-ol] is 339 nM; for `Cc1ncc2ccc(-c3cncc4c3COCC4O)cn12` (single isomer, unassigned) [Compound 87, 8-(3-Methyl-imidazo[1,5-a]pyridin-6-yl)-3,4-dihydro-1H-pyrano[4,3-c]pyridin-4-ol] it is 123 nM.
`CN(C)C1COCc2c(-c3ccc4cnn(C)c4c3)cncc21` (single isomer, unassigned) [Compound 185, Dimethyl-[8-(1-methyl-1H-indazol-6-yl)-3,4-dihydro-1H-pyrano[4,3-c]pyridin-4-yl]-amine] displayed an IC50 of 18 nM.
Turning to `CCC(=O)NC1COCc2c(-c3cc(F)c4cnn(C)c4c3)cncc21` (single isomer, unassigned) [Compound 150, N-[8-(4-Fluoro-1-methyl-1H-indazol-6-yl)-3,4-dihydro-1H-pyrano[4,3-c]pyridin-4-yl]-propionamide], 17.4 nM corresponded to half-maximal inhibition (IC50).
The figure for `Cn1nnc2ccc(-c3cncc4c3COC3(CC3)C4O)cc21` (single isomer, unassigned) [Compound 198, 8-(3-methylbenzotriazol-5-yl)spiro[1,4-dihydropyrano[4,3-c]pyridine-3,1′-cyclopropane]-4-ol] is 19 nM; for `OC1COCc2c(-c3ccc4ncccc4c3)cncc21` (single isomer, unassigned) [Compound 35, 8-Quinolin-6-yl-3,4-dihydro-1H-pyrano[4,3-c]pyridin-4-ol] it is 9.7 nM.
Consider `OC1COCc2c(-c3ccc4c(c3)COCC4(F)F)cncc21` (single isomer, unassigned) [Compound 199, 8-(4,4-Difluoro-isochroman-7-yl)-3,4-dihydro-1H-pyrano[4,3-c]pyridin-4-ol], for which the IC50 stood at 22 nM.

Values taken from US9890171B2, “Aldosterone synthase inhibitors” (Boehringer Ingelheim International GmbH, priority 2014, dated 2018).
